Laboratory results published in patent publication US20230085307A1, “PYRIDAZINONE COMPOUND AND HERBICIDE” (NISSAN CHEMICAL CORPORATION, priority 2019, published 2023).

What was measured:
[1] = tested on: persian speedwell; assay: Test Example 5: herbicidal effect by foliage application, plastic box (Table 20, symbol R); type: in vivo, Persian speedwell (Veronica persica); settings: 320 g/ha, foliage application after 14-day growth, evaluated three weeks after application
How it was run: (§1)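 Sow seeds spot-wise in sterilized diluvial soil; cover with ~1.5 cm soil. Grow 14 days in greenhouse, 25° C. to 30° C. Spray foliage with emulsion diluted to predetermined amount. Rate effect after 3 weeks.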

[2] = tested on: chickweed; assay: Test Example 5: herbicidal effect by foliage application, plastic box (Table 20, symbol P); type: in vivo, common chickweed (Stellaria media); settings: 320 g/ha, foliage application after 14-day growth, evaluated three weeks after application
How it was run: as §1

[3] = tested on: barnyard grass; assay: Test Example 3: herbicidal effect by foliage application, Wagner pot (Table 18, symbol H); type: in vivo, barnyard grass (Echinochloa crus-galli); settings: 320 g/ha
How it was run: (§2)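 Plants were sown in alluvial soil held under 0.1–0.5 cm standing water and grown 14 days in a greenhouse at 25–30 °C. An emulsifiable formulation, water-diluted to the set dose, was then sprayed onto the foliage, and effects were scored three weeks later using previously defined criteria.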

[4] = tested on: rice flat sedge; assay: Test Example 3: herbicidal effect by foliage application, Wagner pot (Table 18, symbol E); type: in vivo, rice flat sedge (Cyperus iria); settings: 320 g/ha
How it was run: as §2

[5] = tested on: Italian ryegrass; assay: Test Example 5: herbicidal effect by foliage application, plastic box (Table 20, symbol K); type: in vivo, Italian ryegrass (Lolium multiflorum); settings: 320 g/ha, foliage application after 14-day growth, evaluated three weeks after application
How it was run: as §1

[6] = tested on: late watergrass; assay: Test Example 1: herbicidal activity, application before weed generation under submerged conditions (Table 16, symbol A); type: in vivo, late watergrass (Echinochloa oryzicola); settings: amount of applied herbicide 320 g/ha
How it was run: (§3)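 Alluvial soil was flooded to 4 cm depth, weed seeds were sown mixed and 2.5-leaf rice seedlings were transplanted. On sowing day, the compound's emulsion, diluted in water to a set dose, was applied to the water surface. Plants grew at 25–30 °C and were scored 0–5 after three weeks.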

[7] = tested on: Chinese sprangletop; assay: Test Example 3: herbicidal effect by foliage application, Wagner pot (Table 18, symbol D); type: in vivo, chinese sprangletop (Leptochloa chinensis); settings: 320 g/ha
How it was run: as §2

[8] = tested on: redroot pigweed; assay: Test Example 4: herbicidal effect by soil treatment (Table 19, symbol N); type: in vivo, redroot pigweed (Amaranthus retroflexus); settings: amount of applied herbicide 320 g/ha
How it was run: (§4)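 Applied as a water-diluted emulsion, the compound was sprayed onto soil covering newly sown seeds. Evaluation came three weeks after application, in a greenhouse held at 25° C. to 30° C.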

[9] = tested on: chickweed; assay: Test Example 4: herbicidal effect by soil treatment (Table 19, symbol P); type: in vivo, common chickweed (Stellaria media); settings: amount of applied herbicide 320 g/ha
How it was run: as §4

[10] = tested on: velvetleaf; assay: Test Example 5: herbicidal effect by foliage application, plastic box (Table 20, symbol M); type: in vivo, velvetleaf (Abutilon theophrasti); settings: 320 g/ha, foliage application after 14-day growth, evaluated three weeks after application
How it was run: as §1

[11] = tested on: southern crabgrass; assay: Test Example 5: herbicidal effect by foliage application, plastic box (Table 20, symbol F); type: in vivo, southern crabgrass (Digitaria ciliaris); settings: 320 g/ha, foliage application after 14-day growth, evaluated three weeks after application
How it was run: as §1

[12] = tested on: false cleavers; assay: Test Example 4: herbicidal effect by soil treatment (Table 19, symbol Q); type: in vivo, false cleavers (Galium spurium); settings: amount of applied herbicide 320 g/ha
How it was run: as §4

[13] = tested on: wild oat; assay: Test Example 4: herbicidal effect by soil treatment (Table 19, symbol I); type: in vivo, wild oat (Avena fatua); settings: amount of applied herbicide 320 g/ha
How it was run: as §4

[14] = tested on: southern crabgrass; assay: Test Example 4: herbicidal effect by soil treatment (Table 19, symbol F); type: in vivo, southern crabgrass (Digitaria ciliaris); settings: amount of applied herbicide 320 g/ha
How it was run: as §4

[15] = tested on: redroot pigweed; assay: Test Example 5: herbicidal effect by foliage application, plastic box (Table 20, symbol N); type: in vivo, redroot pigweed (Amaranthus retroflexus); settings: 320 g/ha, foliage application after 14-day growth, evaluated three weeks after application
How it was run: as §1

[16] = tested on: Japanese bulrush; assay: Test Example 1: herbicidal activity, application before weed generation under submerged conditions (Table 16, symbol B); type: in vivo, Japanese bulrush (Schoenoplectus juncoides); settings: amount of applied herbicide 320 g/ha
How it was run: as §3

[17] = tested on: green foxtail; assay: Test Example 5: herbicidal effect by foliage application, plastic box (Table 20, symbol G); type: in vivo, green foxtail (Setaria viridis); settings: 320 g/ha, foliage application after 14-day growth, evaluated three weeks after application
How it was run: as §1

[18] = tested on: lambsquarters; assay: Test Example 4: herbicidal effect by soil treatment (Table 19, symbol O); type: in vivo, lambsquarters (Chenopodium album); settings: amount of applied herbicide 320 g/ha
How it was run: as §4

[19] = tested on: velvetleaf; assay: Test Example 4: herbicidal effect by soil treatment (Table 19, symbol M); type: in vivo, velvetleaf (Abutilon theophrasti); settings: amount of applied herbicide 320 g/ha
How it was run: as §4

[20] = tested on: wild oat; assay: Test Example 5: herbicidal effect by foliage application, plastic box (Table 20, symbol I); type: in vivo, wild oat (Avena fatua); settings: 320 g/ha, foliage application after 14-day growth, evaluated three weeks after application
How it was run: as §1

[21] = tested on: barnyard grass; assay: Test Example 4: herbicidal effect by soil treatment (Table 19, symbol H); type: in vivo, barnyard grass (Echinochloa crus-galli); settings: amount of applied herbicide 320 g/ha
How it was run: as §4

[22] = tested on: barnyard grass; assay: Test Example 5: herbicidal effect by foliage application, plastic box (Table 20, symbol H); type: in vivo, barnyard grass (Echinochloa crus-galli); settings: 320 g/ha, foliage application after 14-day growth, evaluated three weeks after application
How it was run: as §1

[23] = tested on: lambsquarters; assay: Test Example 5: herbicidal effect by foliage application, plastic box (Table 20, symbol O); type: in vivo, lambsquarters (Chenopodium album); settings: 320 g/ha, foliage application after 14-day growth, evaluated three weeks after application
How it was run: as §1

[24] = tested on: oval-leafed pondweed; assay: Test Example 1: herbicidal activity, application before weed generation under submerged conditions (Table 16, symbol C); type: in vivo, oval-leafed pondweed (Monochoria vaginalis); settings: amount of applied herbicide 320 g/ha
How it was run: as §3

[25] = tested on: blackgrass; assay: Test Example 4: herbicidal effect by soil treatment (Table 19, symbol J); type: in vivo, blackgrass (Alopecurus myosuroides); settings: amount of applied herbicide 320 g/ha
How it was run: as §4

[26] = tested on: persian speedwell; assay: Test Example 4: herbicidal effect by soil treatment (Table 19, symbol R); type: in vivo, Persian speedwell (Veronica persica); settings: amount of applied herbicide 320 g/ha
How it was run: as §4

[27] = tested on: windgrass; assay: Test Example 5: herbicidal effect by foliage application, plastic box (Table 20, symbol L); type: in vivo, windgrass (Apera spica-venti); settings: 320 g/ha, foliage application after 14-day growth, evaluated three weeks after application
How it was run: as §1

[28] = tested on: windgrass; assay: Test Example 4: herbicidal effect by soil treatment (Table 19, symbol L); type: in vivo, windgrass (Apera spica-venti); settings: amount of applied herbicide 320 g/ha
How it was run: as §4

[29] = tested on: Italian ryegrass; assay: Test Example 4: herbicidal effect by soil treatment (Table 19, symbol K); type: in vivo, Italian ryegrass (Lolium multiflorum); settings: amount of applied herbicide 320 g/ha
How it was run: as §4

[30] = tested on: blackgrass; assay: Test Example 5: herbicidal effect by foliage application, plastic box (Table 20, symbol J); type: in vivo, blackgrass (Alopecurus myosuroides); settings: 320 g/ha, foliage application after 14-day growth, evaluated three weeks after application
How it was run: as §1

[31] = tested on: green foxtail; assay: Test Example 4: herbicidal effect by soil treatment (Table 19, symbol G); type: in vivo, green foxtail (Setaria viridis); settings: amount of applied herbicide 320 g/ha
How it was run: as §4

CSc1ccc(-c2sc3c(F)cccc3c2-c2c(O)c(C)nn(C)c2=O)cc1 [4-050]
herbicidal effect on R: persian speedwell (evaluation grade 0-5) [1]: 5 (Herbicidal rate of 90% or more (almost completely withered))
herbicidal effect on P: chickweed (evaluation grade 0-5) [2]: 5 (Herbicidal rate of 90% or more (almost completely withered))
herbicidal effect on barnyard grass (H) [3]: 5 (Herbicidal rate of 90% or more (almost completely withered))
herbicidal effect on rice flat sedge (E) [4]: 4 (Herbicidal rate of 70% or more and less than 90%)
herbicidal effect on K: Italian ryegrass (evaluation grade 0-5) [5]: 4 (Herbicidal rate of 70% or more and less than 90%)
Herbicidal effect, A: late watergrass [6]: 3 (Herbicidal rate of 40% or more and less than 70%)
herbicidal effect on Chinese sprangletop (D) [7]: 4 (Herbicidal rate of 70% or more and less than 90%)
Herbicidal effect by soil treatment, N: redroot pigweed [8]: 4 (Herbicidal rate of 70% or more and less than 90%)
Herbicidal effect by soil treatment, P: chickweed [9]: 4 (Herbicidal rate of 70% or more and less than 90%)
herbicidal effect on M: velvetleaf (evaluation grade 0-5) [10]: 5 (Herbicidal rate of 90% or more (almost completely withered))
herbicidal effect on F: southern crabgrass (evaluation grade 0-5) [11]: 2 (Herbicidal rate of 20% or more and less than 40%)
Herbicidal effect by soil treatment, Q: false cleavers [12]: 0 (Herbicidal rate of 5% or less (almost no effect))
Herbicidal effect by soil treatment, I: wild oat [13]: 0 (Herbicidal rate of 5% or less (almost no effect))
Herbicidal effect by soil treatment, F: southern crabgrass [14]: 2 (Herbicidal rate of 20% or more and less than 40%)
herbicidal effect on N: redroot pigweed (evaluation grade 0-5) [15]: 5 (Herbicidal rate of 90% or more (almost completely withered))
Herbicidal effect, B: Japanese bulrush [16]: 0 (Herbicidal rate of 5% or less (almost no effect))
herbicidal effect on G: green foxtail (evaluation grade 0-5) [17]: 5 (Herbicidal rate of 90% or more (almost completely withered))
Herbicidal effect by soil treatment, O: lambsquarters [18]: 3 (Herbicidal rate of 40% or more and less than 70%)
Herbicidal effect by soil treatment, M: velvetleaf [19]: 3 (Herbicidal rate of 40% or more and less than 70%)
herbicidal effect on I: wild oat (evaluation grade 0-5) [20]: 1 (Herbicidal rate of 5% or more and less than 20%)
Herbicidal effect by soil treatment, H: barnyard grass [21]: 2 (Herbicidal rate of 20% or more and less than 40%)
herbicidal effect on H: barnyard grass (evaluation grade 0-5) [22]: 5 (Herbicidal rate of 90% or more (almost completely withered))
herbicidal effect on O: lambsquarters (evaluation grade 0-5) [23]: 5 (Herbicidal rate of 90% or more (almost completely withered))
Herbicidal effect, C: oval-leafed pondweed [24]: 0 (Herbicidal rate of 5% or less (almost no effect))
Herbicidal effect by soil treatment, J: blackgrass [25]: 0 (Herbicidal rate of 5% or less (almost no effect))
Herbicidal effect by soil treatment, R: persian speedwell [26]: 4 (Herbicidal rate of 70% or more and less than 90%)
herbicidal effect on L: windgrass (evaluation grade 0-5) [27]: 5 (Herbicidal rate of 90% or more (almost completely withered))
Herbicidal effect by soil treatment, L: windgrass [28]: 0 (Herbicidal rate of 5% or less (almost no effect))
Herbicidal effect by soil treatment, K: Italian ryegrass [29]: 1 (Herbicidal rate of 5% or more and less than 20%)
herbicidal effect on J: blackgrass (evaluation grade 0-5) [30]: 3 (Herbicidal rate of 40% or more and less than 70%)
Herbicidal effect by soil treatment, G: green foxtail [31]: 3 (Herbicidal rate of 40% or more and less than 70%)
